Reference: paper PMC7496508, “Modular Medical Imaging Agents Based on Azide–Alkyne Huisgen Cycloadditions: Synthesis and Pre‐Clinical Evaluation of ^18F‐Labeled PSMA‐Tracers for Prostate Cancer Imaging” (Chemistry (Weinheim an Der Bergstrasse, Germany), 2020)
Values joined by “and” are separate entries in the source; they are usually repeats but may differ in a detail not shown here. Equal values may be shown once.

How the values were obtained:
[1] = radiotracer stability in formulation, radio-HPLC; assay type: physicochemical; details: 10 % EtOH/PBS, 4 h
Protocol: Clinical translation requires higher amounts of radioactivity than those manually achievable, which are limited by radiation burden for the radiochemist. Therefore, the synthesis of [^18F]PSMA‐MIC01 was automated on a FlowSafe radiosynthesis module, a continuous‐flow microfluidics platform (see Supporting Information for details). [^18F]PSMA‐MIC01 was produced in an overall RCY of 21 % with an overall production time of 139 min (see Supporting Information for experimental details). The higher RCY can be explained by the use of the microfluidic set up for the [^18F]fluorination towards intermediate [^18F]9. Microfluidic systems have a higher surface‐to‐volume ratio which results in an increased heat transfer capacity compared to in‐batch syntheses.62 This enabled reduction of the effective reaction time of the [^18F]fluorination to 75 s with concomitant reduction of ^18F‐side‐products and increased the intermediary RCY of [^18F]9 to 42 % and overall RCY to 21 %. […] The measured lipophilicity (logD) in n‐octanol/PBS was −3.01±0.22 (see Supporting Information). […]
The stabilities of [18F]PSMA-MIC01 and [18F]PSMA-MIC02 were tested, to ensure the integrity of the tracer in solution. […] After purification and formulation into an injectable solution of 10 % EtOH in PBS, the radiotracer was analysed by HPLC again (B),which was repeated after 2 h (C) and 4 h (D). […]

[2] = test system: LNCaP (PSMA+) xenografts; experiment: ex vivo organ distribution, LNCaP xenograft mice; assay type: in vivo, Balb/c nude mice
Protocol: All groups were evaluated by visual assessment of the PET image and the percentage injected dose per gram (%ID g^−1).
The animal experiments were all performed according to the ethical guidelines and approved by the local animal welfare committee of the University of Groningen (IvD number 15166-06-001. All animals were caged separately in individually ventilated cages.
7-12 week old immune deficient Balb/c nude mice were inoculated with 200 µL of a 1:1 suspension of medium containing approximately 4 x10^6 LNCaP cells (PSMA positive cells) or 5 x 10^6 PC3 cells (PSMA-negative cells) in RPMI-1640, and Matrigel Basement Membrane Matrix High concentration. The cells were subcutaneously inoculated on the right shoulder.
After 3 to 5 weeks for LNCaP-xenografts, 2-3 weeks for PC3-xenografts or when a tumor size of 1cm3 was reached, the animals were transported to the PET imaging facility. For the […]
prepared and 100 µL were injected via penile vein injection 30 min prior to the tracer injection. Animals were anesthetized at 5 % isoflurane and maintained under 2 % isoflurane enriched with O2. The dynamic PET scan was started within 5 min after tracer injection with an acquisition time of 90 min. The static scan was performed 60 min after tracer injection with an acquisition time of 30 min.
(§1) 7.2. Organ distribution and Metabolite analysis.
After sacrificing the animals, the organs were dissected and measured in a γ-counter. The obtained CPM’s were normalized to %ID/g (Table shown in main text). […]
(§2) In order to check for the significant differences, we also checked for the Cohen’s d, a measurement to determine the effect size. It is calculated on the following formula:
(§3) Cohen′sD = Mean1− Mean2 . […]

[3] = metabolite analysis of plasma and urine by TLC; assay type: in vivo, Balb/c nude mice; details: PC3- or LNCaP-xenograft animals
Excerpt: as §1
After sacrificing the animals, the organs were dissected and measured in a γ-counter. The obtained CPM’s were normalized to %ID/g (Table shown in main text). For the metabolite analysis, urine and plasma samples were pipetted onto a TLC plate and run in a solution of 10 % MeCN in H2O and read out in an Amersham Typhoon (GE).Additionally to […]
metabolite analysis of two article, the image quantification based on the standardized different animals bearing a uptake value (SUV ) was performed. The obtained data PC3- or a LNCaP-xenograft. meanBW While in Plasma, no are represented in the following Table S6. Here, we show the metabolite were formed, the […]
results obtained by image quantification of the 4 different conclusive. groups. Comparison of tumor uptake in PSMA-expressing
LNCaP xenografts of (1) [68Ga]PSMA-11 and (2) [18F]PSMA-MIC01 (the same animals). (3) the PSMA-negative PC3 xenograft. (4) Confirmation of binding specificity of radiotracer [18F]PSMA-MIC01, by blocking PSMA in LNCaP-xenografts prior to radiotracer injection] using the potent PSMA-inhibitor 2-PMPA.
as §2, §3
(1 picture or pasted object on this page, not shown here)

[4] = LNCaP (PSMA+) xenograft blocked with 2-PMPA 30 min prior to tracer
[5] = LNCaP (PSMA+) xenograft, dissected after PET scan

O=C(O)CC[C@H](NC(=O)N[C@@H](CCCCNC(=O)c1ccc(-c2cn(CCOCCOCC[18F])nn2)cc1)C(=O)O)C(=O)O [[^18F]PSMA‐MIC01]
stability of the radiotracer [1]: No degradation products could be detected | ex vivo uptake bone [2, 4]: 0.3±0.1 %ID g^−1 | ex vivo uptake brain [2, 4]: 0.1±0.0 %ID g^−1 | ex vivo uptake heart [2, 4]: 0.7±0.5 %ID g^−1 | ex vivo uptake kidney [2, 4]: 28.5±20.7 %ID g^−1 | ex vivo uptake large intestine [2, 4]: 0.9±0.3 %ID g^−1 | ex vivo uptake liver [2, 4]: 5.7±1.4 %ID g^−1 | ex vivo uptake lungs [2, 4]: 1.1±0.3 %ID g^−1 | ex vivo uptake muscles [2, 4]: 0.3±0.1 %ID g^−1 | ex vivo uptake pancreas [2, 4]: 0.5±0.2 %ID g^−1 | ex vivo uptake plasma [2, 4]: 3.8±1.3 %ID g^−1 | ex vivo uptake salivary glands [2, 4]: 1.0±0.8 %ID g^−1 | ex vivo uptake small intestine [2, 4]: 1.2±1.5 %ID g^−1 | ex vivo uptake spleen [2, 4]: 1.0±0.2 %ID g^−1 | ex vivo uptake stomach [2, 4]: 7.3±16.4 %ID g^−1 | ex vivo uptake tumor [2, 4]: 2.8±0.8 %ID g^−1 | ex vivo uptake urine [2, 4]: 644±627 %ID g^−1 | ex vivo uptake whole blood [2, 4]: 1.8±0.6 %ID g^−1 | ex vivo uptake bone [2, 5]: 0.2±0.1 %ID g^−1 | ex vivo uptake brain [2, 5]: 0.1±0.0 %ID g^−1 | ex vivo uptake heart [2, 5]: 0.6±0.4 %ID g^−1 | ex vivo uptake kidney [2, 5]: 42.0±9.0 %ID g^−1 | ex vivo uptake large intestine [2, 5]: 1.4±1.5 %ID g^−1 | ex vivo uptake liver [2, 5]: 5.6±1.3 %ID g^−1 | ex vivo uptake lungs [2, 5]: 1.3±0.5 %ID g^−1 | ex vivo uptake muscles [2, 5]: 0.5±0.2 %ID g^−1 | ex vivo uptake pancreas [2, 5]: 0.8±0.7 %ID g^−1 | ex vivo uptake plasma [2, 5]: 0.9±5.2 %ID g^−1 | ex vivo uptake salivary glands [2, 5]: 0.5±0.3 %ID g^−1 | ex vivo uptake small intestine [2, 5]: 1.6±2.1 %ID g^−1 | ex vivo uptake spleen [2, 5]: 5.8±3.4 %ID g^−1 | ex vivo uptake stomach [2, 5]: 0.6±0.2 %ID g^−1 | ex vivo uptake tumor [2, 5]: 11.8±4.2 %ID g^−1 and 11.7±4.2 %ID g^−1 | ex vivo uptake urine [2, 5]: 314±420 %ID g^−1 | ex vivo uptake whole blood [2, 5]: 1.6±1.3 %ID g^−1 | metabolites in plasma [3]: no
